Biological target: AMPK
Assay: AMPK activation, enzyme-linked immunosorbent assay
Format: biochemical
Conditions: Table 14, compounds of Table 7
Procedure, shortened: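 Read-out: ELISA, used to detect compound-driven activation of AMPK.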

Row | EC50 | SMILES
1 | < 1 µM | COc1ccc(C(=O)C2CCN(C(=O)c3ccc(C(=O)NC4CCN(Cc5cccc(C#N)c5)C[C@@H]4F)cn3)CC2)cc1 (stereo partly drawn) [Compound 7-27, N-((3,4-trans)-1-(3-cyanobenzyl)-3-fluoropiperidin-4-yl)-6-(4-(4-methoxybenzoyl)piperidine-1-carbonyl)nicotinamide]
2 | < 1 µM | COc1ccc(C(=O)C2CCN(C(=O)c3ccc(C(=O)NC4CCN(Cc5cccc(C#N)c5)C[C@H]4F)cn3)CC2)cc1 (stereo partly drawn) [Compound 7-29, N-((3,4-trans)-1-(3-cyanobenzyl)-3-fluoropiperidin-4-yl)-6-(4-(4-methoxybenzoyl)piperidine-1-carbonyl)nicotinamide]
3 | < 1 µM | COc1ccc(C(=O)C2CCN(C(=O)c3ccc(C(=O)NC4CCN(Cc5cccc(OC)c5)C[C@H]4F)cn3)CC2)cc1 (stereo partly drawn) [Compound 7-30, N-((3,4-trans)-3-fluoro-1-(3-methoxybenzyl)piperidin-4-yl)-6-(4-(4-methoxybenzoyl)piperidine-1-carbonyl)nicotinamide]
4 | < 1 µM | COc1ccc(C(=O)C2CCN(C(=O)c3ccc(C(=O)NC4CCN(Cc5cccc(C(F)(F)F)c5)C[C@H]4F)cn3)CC2)cc1 (stereo partly drawn) [Compound 7-32, N-((3,4-trans)-3-fluoro-1-(3-(trifluoromethyl)benzyl)piperidin-4-yl)-6-(4-(4-methoxybenzoyl)piperidine-1-carbonyl)nicotinamide]
5 | < 1 µM | COc1ccc(C(=O)C2CCN(C(=O)c3ccc(C(=O)NC4CCN(Cc5cccc(C(F)(F)F)c5)C[C@@H]4F)cn3)CC2)cc1 (stereo partly drawn) [Compound 7-34, N-((3,4-trans)-3-fluoro-1-(3-(trifluoromethyl)benzyl)piperidin-4-yl)-6-(4-(4-methoxybenzoyl)piperidine-1-carbonyl)nicotinamide]

The remaining lines, values behind:

Row | SMILES | EC50
6 | Cc1nc2cc(OC3CCN(C(=O)c4ccc(C(=O)Nc5ccc(Oc6ccc(C#N)cc6)nc5)cn4)CC3)ccc2s1 [Compound 7-25, N-(6-(4-cyanophenoxy)pyridin-3-yl)-6-(4-(2-methylbenzo[d]thiazol-5-yloxy)piperidine-1-carbonyl)nicotinamide] | < 1 µM
7 | COc1ccc(CN2CCC(NC(=O)c3ccc(C(=O)N4CCC(C(=O)c5ccc(OC)cc5)CC4)nc3)[C@H](F)C2)cc1 (stereo partly drawn) [Compound 7-26, N-((3,4-trans)-3-fluoro-1-(4-methoxybenzyl)piperidin-4-yl)-6-(4-(4-methoxybenzoyl)piperidine-1-carbonyl)nicotinamide] | < 1 µM
8 | COc1ccc(C(=O)C2CCN(C(=O)c3ccc(C(=O)NC4CCN(Cc5ccc(C(F)(F)F)cc5)C[C@@H]4F)cn3)CC2)cc1 (stereo partly drawn) [Compound 7-28, N-((3,4-trans)-3-fluoro-1-(4-(trifluoromethyl)benzyl)piperidin-4-yl)-6-(4-(4-methoxybenzoyl)piperidine-1-carbonyl)nicotinamide] | < 1 µM
9 | COc1ccc(C(=O)C2CCN(C(=O)c3ccc(C(=O)NC4CCN(Cc5ccc(OC(F)(F)F)cc5)C[C@H]4F)cn3)CC2)cc1 (stereo partly drawn) [Compound 7-33, (3,4-trans)-3-fluoro-4-(6-(4-(4-methoxybenzoyl)piperidine-1-carbonyl)nicotinamido)-1-(4-(trifluoromethoxy)benzyl) piperidinium] | < 1 µM
10 | COc1ccc(C(=O)C2CCN(C(=O)c3ccc(C(=O)NC4CCN(Cc5ccc(F)c(C)c5)C[C@H]4F)cn3)CC2)cc1 (stereo partly drawn) [Compound 7-37, N-((3,4-trans)-3-fluoro-1-(4-fluoro-3-methylbenzyl)piperidin-4-yl)-6-(4-(4-methoxybenzoyl)piperidine-1-carbonyl)nicotinamide] | < 1 µM
11 | Cn1cnc2cc(OC3CCN(C(=O)c4ccc(C(=O)NC5CCN(Cc6ccc(C#N)cc6)CC5)cn4)CC3)ccc21 [Compound 7-38, N-(1-(4-cyanobenzyl)piperidin-4-yl)-6-(4-(1-methyl-1H-benzo[d]imidazol-5-yloxy)piperidine-1-carbonyl)nicotinamide] | 1 to 10 µM

Reference: patent US9409884B2 (Rigel Pharmaceuticals, Inc., priority 2012, dated 2016)
